# Where “and” joins values, the source holds several entries; their conditions need not be identical. Equal entries are not always repeated. Marks after values point to notes of the source that are not given here.
# How the values were obtained:
# 5-HT1b receptor [1] = target: T1, 5-HT1b receptor (Homo sapiens, UniProt P28222); assay: Radioligand binding competition assay with 3H-5-CT; details: for Ki: 3H-5-CT, derived from IC50 using Cheng-Prusoff equation
# Excerpt: The Ki values were derived from IC50 values using Cheng-Prusoff equation.
# [2] = target: T2, human 5-HT1b (h5-HT1b) receptors (Homo sapiens, UniProt P28222); assay: SPA-based 35S-GTPγS binding assay, human 5-HT1b; format: biochemical; details: for EC50: ten concentrations in duplicate
# T2 construct: expressed in transfected cells
# T2 sequence (P28222 whole entry): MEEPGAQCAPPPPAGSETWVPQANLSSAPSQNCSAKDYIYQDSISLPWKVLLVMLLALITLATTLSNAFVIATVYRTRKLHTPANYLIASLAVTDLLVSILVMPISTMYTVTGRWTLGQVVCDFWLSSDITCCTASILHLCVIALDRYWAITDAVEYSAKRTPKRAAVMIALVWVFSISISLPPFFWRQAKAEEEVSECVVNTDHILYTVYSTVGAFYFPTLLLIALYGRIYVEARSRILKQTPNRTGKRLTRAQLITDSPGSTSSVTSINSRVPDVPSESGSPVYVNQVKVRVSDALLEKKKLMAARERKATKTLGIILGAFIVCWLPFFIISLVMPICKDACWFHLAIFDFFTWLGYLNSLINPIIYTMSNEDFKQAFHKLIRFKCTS
# [3] = target: T3, rat recombinant 5-HT1b (r5-HT1b) receptors (Rattus norvegicus, UniProt P28564); assay: SPA-based 35S-GTPγS binding assay, rat 5-HT1b; format: biochemical; details: for EC50: ten concentrations in duplicate
# T3 construct: expressed in transfected cells
# T3 sequence (P28564 whole entry): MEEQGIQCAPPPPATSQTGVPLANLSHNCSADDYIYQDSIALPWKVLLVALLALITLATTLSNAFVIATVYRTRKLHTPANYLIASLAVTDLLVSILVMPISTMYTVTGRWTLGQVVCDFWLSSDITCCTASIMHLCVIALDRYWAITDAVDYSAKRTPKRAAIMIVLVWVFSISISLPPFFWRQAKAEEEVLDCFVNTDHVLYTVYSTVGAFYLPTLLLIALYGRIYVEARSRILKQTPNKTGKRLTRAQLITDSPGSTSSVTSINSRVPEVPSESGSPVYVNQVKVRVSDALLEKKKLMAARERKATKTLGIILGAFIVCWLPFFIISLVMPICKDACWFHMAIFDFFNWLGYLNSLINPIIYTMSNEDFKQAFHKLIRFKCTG
# [4] = CSF exposure in c57/B16 mice after i.p. dosing
# [5] = CSF exposure in adult male CD-1 mice after i.p. dosing; details: male CD-1 mice dosed with zolmitriptan 3 and 10 mg/kg i.p.
# resident CD-1 mice = assay: Resident-Intruder (RI) assay, CD-1 resident / C57BL/6 intruder; format: in vivo, mouse; details: CD-1 resident mice, cross-over, N=25, zolmitriptan 10 mg/kg, risperidone 0.03 mg/kg, mean; for Attack Time (s): 5 min period
# Procedure: The resident mice were isolated for 1 week prior to testing aggressive behavior, while the intruders were group housed (4 per cage) throughout the study. All mice were given ad libitum food and water. Following the 1-week isolation period, aggressive behaviors were recorded using a front-facing camera daily (Monday-Friday) for up to 2 weeks to attain a stable baseline prior to evaluating drug effects. The interaction was scored using Borris open source event logging software to score the number of total initiated attacks by the resident and the cumulative duration of those attacks. Single fight bouts lasting longer than 60 seconds were stopped and the intruder was subsequently removed from the resident cage. […] Attack time was measured over a 5 min period as a cross over design.
# resident BALB/c mice = assay: Resident-Intruder (RI) assay, BALB/c resident / C57BL/6 intruder; format: in vivo, mouse
# Excerpt: Correspondingly, the RI assay has been used preclinically to study the effect of drugs on rodent aggression (Miczek et al., 2001). The RI assay typically relies on the interpretation and scoring of offensive (resident animal) behavior patterns and may also include analysis of defensive (intruder animal) behavior patterns as well. […] The resident mice were isolated for 1 week prior to testing aggressive behavior, while the intruders were group housed (4 per cage) throughout the study. All mice were given ad libitum food and water. Following the 1-week isolation period, aggressive behaviors were recorded using a front-facing camera daily (Monday-Friday) for up to 2 weeks to attain a stable baseline prior to evaluating drug effects. The interaction was scored using Borris open source event logging software to score the number of total initiated attacks by the resident and the cumulative duration of those attacks. Single fight bouts lasting longer than 60 seconds were stopped and the intruder was subsequently removed from the resident cage. […] The resident mice were treated with vehicle for two consecutive days and then balanced for a two arm (3 and 10 mg/kg) cross over study. […] The consecutive fourth and fifth days were vehicle treatment followed by a final cross over treatment day on the sixth day.
# [6] = test system: VPA-exposed male c57/B16 mice; assay: 3-chamber Social Interaction Assay in valproic acid (VPA)-induced mouse model of ASD; format: in vivo; details: adult male c57/B16 mice previously exposed to VPA; 10 mg/kg i.p. 15 min before test; vs vehicle
# Procedure: Specifically, sociability was evaluated in male c57/B16 mice that were previously exposed to valproic acid (VPA) via i.p. delivery of 500 mg/kg to their pregnant mothers at embryonic Day 13.
# In this study, zolmitriptan was dissolved in 10% (2-Hydroxypropyl)-o-cyclodextrin in saline and administered intraperitoneally (i.p.) 15 minutes before mice were placed in the test chamber. Behavioral recordings were measured using an automated video tracking system (Noldus EthoVision v14) and analyzed and graphed using GraphPad Prism software v8. Sociability was assessed during a 10 min period in the 3-chamber Social Interaction Assay. The time spent (sec) in the social interaction zone (SIZ) in front of the juvenile novel C57/BL6 vs empty interaction zone (EIZ) were used to calculate the sociability scores for individual mice. Sociability index was calculated using SIZ/EIZ ratio. Social interaction preference was calculated using (SIZ)/(SIZ+EIZ)*100. Simultaneous recording up to 4 arenas were conducted for the social interaction assay. Paired and unpaired T tests were used as statistical tests.
# [7] = Multiple ascending oral dose study in adult healthy volunteers (safety, tolerability, CSF PK); format: in vivo, human
# Procedure: An investigation of the safety, tolerability and pharmacokinetic response of oral zolmitriptan following multiple ascending doses in adult healthy volunteer subjects was undertaken.
# Zolmitriptan 2.5 mg per tablet or placebo tablet was administered 3 times per day (TID) for an up-titration period, treatment period of 7 days, and a down-titration period. The dose regimen is depicted in Table 1.
# A lumbar puncture was completed on each subject to determine the concentration of zolmitriptan in the CSF. CSF samples were collected on day 5 of treatment for Cohort 1 and day 7 of treatment for Cohorts 2 and 3, and day 8 of treatment for cohort 4 and 5. The CSF collection was 2 hours after the morning dose (+/−30 minutes). CSF concentration was measured using a validated bioanalytical method.
# 5-HT1b receptor [8] = target: T1, 5-HT1b receptor; assay: 5-HT1b receptor occupancy and efficacy model, human dose prediction; details: for Zolmitriptan human dose: predicted dose; for Zolmitriptan [CSF]: predicted effective human CSF range
# Excerpt: Specifically, 5-HT1b receptor occupancy and efficacy models measured potency of zolmitriptan and NMDZ at the 5-HT1b receptor and the ratio of zolmitriptan: NDMZ in human CSF.
# Using classical receptor theory, the receptor occupancy when considering two ligands (i.e., entities) can be predicted using the following relationship:
# Total % occupancy=(% occupancy by A)+{[100%−(% occupancy by A)]×(% occupancy by B)} when considering a fixed concentration of both A and B.
# The model was converted to predict the level of 5-HT1b activation (i.e., efficacy) by both zolmitriptan and NDMZ based on the concentration of zolmitriptan in the CSF by substituting Occupancy for Efficacy as predicted by the Clark equation {Efficacy=[L]/([L]+Ki); [L]=ligand concentration} for both zolmitriptan and NDMZ:
# Total % Efficacy={[Zolmitriptan]/([Zolmitriptan]+Ki,Z)}+(100−{[Zolmitriptan]/([Zolmitriptan]+Ki,Z)}×{[NDMZ]/([NDMZ]+Ki,N)}
# in vivo = details: male, CD-1, mouse, ip
# [9] = male, c57/B16, mouse, CSF, ip, 10 mg/kg
# [10] = BALB/c resident mice, 3 and 10 mg/kg i.p., 15 min pretreatment, 5 min interaction, cross-over vs vehicle
# T1 sequence (P28222 whole entry): as the sequence (P28222 whole entry) above
smiles,measurement,setting,value
"CN1CCC[C@@H]1Cc1c[nH]c2ccc(CCS(=O)(=O)c3ccccc3)cc12 [Eletriptan, eletriptan]",Ki,5-HT1b receptor [1],4.48 nM
same,EC50,[2],8.8 nM
same,EC50,[3],120 nM
same,"c57/B16 mouse CSF Cmax (10 mg/Kg, i.p.)",[4]; 10 mg/Kg i.p.,13.46 ng/mL
same,Kp,[4]; [9],0.0077
"CN[C@@H]1CCc2[nH]c3ccc(C(N)=O)cc3c2C1 [Frovatriptan, frovatriptan]","c57/B16 mouse CSF Cmax (10 mg/Kg, i.p.)",[4]; 10 mg/Kg i.p.,12.52 ng/mL
same,Kp,[4]; [9],0.0015
"CNCCc1c[nH]c2ccc(C[C@H]3COC(=O)N3)cc12 [NDMZ, N-desmethyl zolmitriptan]",Ki,5-HT1b receptor [1],1.18 nM
same,potency relative to zolmitriptan at human 5-HT1b,5-HT1b receptor [1]; from Ki values,2.83 fold
same,metabolite NDMZ level,[5],below the lower limit of quantification
same,metabolite NDMZ level in CSF,[4]; male c57/B16 mice dosed with zolmitriptan 10 mg/kg i.p.,below the lower limit of quantification
"CNS(=O)(=O)CCc1ccc2[nH]cc(C3CCN(C)CC3)c2c1 [Naratriptan, naratriptan]",Ki,5-HT1b receptor [1],0.95 nM
same,EC50,[2],1.2 nM
same,EC50,[3],7.4 nM
same,"c57/B16 mouse CSF Cmax (10 mg/Kg, i.p.)",[4]; 10 mg/Kg i.p.,79.56 ng/mL
same,Kp,[4]; [9],0.0312
Cc1nc2n(c(=O)c1CCN1CCC(c3noc4cc(F)ccc34)CC1)CCCC2 [Risperidone],Attack Time (s),resident CD-1 mice,21.58* s
same,Latency to Attack,resident CD-1 mice,12.98 s
"CN(C)CCc1c[nH]c2ccc(Cn3cncn3)cc12 [Rizatriptan, rizatriptan]",EC50,[3],210 nM
same,"c57/B16 mouse CSF Cmax (10 mg/Kg, i.p.)",[4]; 10 mg/Kg i.p.,90.20 ng/mL
same,Kp,[4]; [9],0.0466
"CN(C)CCc1c[nH]c2ccc(C[C@H]3COC(=O)N3)cc12 [Zolmitriptan, zolmitriptan]",Ki,5-HT1b receptor [1],3.34 nM
same,"CSF levels required for therapeutic effect, humans vs mice (fold lower)",[2]; extrapolated from species difference in EC50,about 8.3 fold
same,EC50,[2],4 nM
same,attack time,resident BALB/c mice; [10],reduction
same,number of attacks,resident BALB/c mice; [10],reduction in the number of attacks
same,"attack behavior, dose dependence","resident BALB/c mice; BALB/c resident mice, 3 and 10 mg/kg i.p., p<0.05, paired t-test",significant dose dependent effect of reduction in attack behavior
same,normal locomotor activity,"resident BALB/c mice; treated mice, 3 and 10 mg/kg",did not effect normal locomotor activity
same,sociability index (SIZ/EIZ ratio),[6],increased the sociability index
same,activity in GTPgS at CSF Cmax,"[3]; CD-1 mouse, 3 mg/Kg i.p., CSF Cmax 18.8 nM",36%
same,activity in GTPgS at CSF Cmax,"[3]; c57/Bl6 mouse, 10 mg/Kg i.p., CSF Cmax 62 nM",65%
same,difference between species in EC50 (rat vs human 5-HT1b),[3]; rat EC50 relative to human EC50,8.3 fold
same,EC50,[3],33 nM
same,safety and tolerability,"[7]; adult healthy volunteers, oral TID multiple ascending doses, all Cohorts",safe and well tolerated
same,Kp at 2 h,"[7]; human, CSF, oral, read-out: CSF: plasma ratio for exposure",0.03
same,concentration for 50% Total Efficacy relative to zolmitriptan EC50,5-HT1b receptor [8]; combined effect of metabolite,3.7 fold
same,concentration of zolmitriptan in human CSF predicted to induce 50% efficacy (EC50) of 5-HT1b by zolmitriptan and NDMZ,5-HT1b receptor [8]; model prediction,1.09 nM and 0.31 ng/ml
same,Zolmitriptan human dose,5-HT1b receptor [8]; Activity EC20-EC80,1.25 to 35 mg
same,Zolmitriptan human dose,5-HT1b receptor [8]; Activity EC25-EC75,1.7 to 30 mg
same,Zolmitriptan human dose,5-HT1b receptor [8]; Activity EC30-EC70,2.25 to 20 mg
same,Zolmitriptan human dose,5-HT1b receptor [8]; Activity EC35-EC65,3 to 15 mg
same,Zolmitriptan human dose,5-HT1b receptor [8]; Activity EC40-EC60,5 to 12.5 mg
same,Zolmitriptan [CSF],5-HT1b receptor [8]; Activity EC20-EC80,0.078 to 1.24 ng/mL
same,Zolmitriptan [CSF],5-HT1b receptor [8]; Activity EC25-EC75,0.103 to 0.93 ng/mL
same,Zolmitriptan [CSF],5-HT1b receptor [8]; Activity EC30-EC70,0.135 to 0.713 ng/mL
same,Zolmitriptan [CSF],5-HT1b receptor [8]; Activity EC35-EC65,0.167 to 0.577 ng/mL
same,Zolmitriptan [CSF],5-HT1b receptor [8]; Activity EC40-EC60,0.207 to 0.465 ng/mL
same,Cmax,in vivo; 3 mg/kg,5.4 ng/mL
same,Cmax,in vivo; 10 mg/kg,34.4 ng/mL
same,Attack Time (s),resident CD-1 mice,18.46*** s
same,Attack Time (s),resident CD-1 mice; listed as zolmitriptan,greater reduction in attack time
same,Latency to Attack,resident CD-1 mice,13.54 s
same,"c57/B16 mouse CSF Cmax (10 mg/Kg, i.p.)",[4]; 10 mg/Kg i.p.,17.83 ng/mL
same,estimated effective CSF Cmax,"[4]; c57/Bl6 ASD mouse model, 10 mg/Kg i.p.",62 nM
same,Kp,"[4]; male, c57/B16, mouse, CSF, intraperitoneal, 10 mg/kg",0.0076
same,Cmax,[4]; [9],17.8 ng/mL
same,Kp,[4]; [9],0.0076
